# Data: ChEMBL document CHEMBL1149626, “Aza analogues of equol: novel ligands for estrogen receptor beta” (Bioorg Med Chem, 2007)
# The source made the active and inactive calls. The calls are words filed in the database; no cut-off is given here.
# What was measured:
# Mus musculus [1] = experiment: Effect on uterine wet weight in ovariectomized kunming mouse at 4 umol/kg, sc qd for 4 weeks; format: functional
# Mus musculus [2] = experiment: Effect on bone mineral density in ovariectomized kunming mouse at 4 umol/kg, sc qd for 4 weeks; format: functional
# [3] = target: T1, Estrogen receptor (Homo sapiens) (UniProt P03372)
# T1 sequence (whole entry): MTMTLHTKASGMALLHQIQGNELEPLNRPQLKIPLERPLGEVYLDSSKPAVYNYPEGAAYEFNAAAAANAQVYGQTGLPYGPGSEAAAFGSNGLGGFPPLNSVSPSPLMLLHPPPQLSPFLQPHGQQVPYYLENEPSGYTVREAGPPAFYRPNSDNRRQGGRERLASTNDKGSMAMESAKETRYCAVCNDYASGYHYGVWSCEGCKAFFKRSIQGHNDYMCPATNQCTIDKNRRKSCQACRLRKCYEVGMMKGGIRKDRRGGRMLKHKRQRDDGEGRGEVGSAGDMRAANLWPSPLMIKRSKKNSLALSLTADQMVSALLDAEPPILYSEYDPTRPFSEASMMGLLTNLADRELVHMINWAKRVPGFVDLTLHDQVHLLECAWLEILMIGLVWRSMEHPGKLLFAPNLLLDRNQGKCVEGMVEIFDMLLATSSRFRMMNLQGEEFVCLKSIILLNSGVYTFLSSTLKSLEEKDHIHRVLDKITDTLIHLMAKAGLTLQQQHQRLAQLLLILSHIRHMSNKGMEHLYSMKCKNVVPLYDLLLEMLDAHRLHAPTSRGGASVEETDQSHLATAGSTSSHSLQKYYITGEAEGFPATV
# Description: (§1) Displacement of [3H]17beta-estradiol from recombinant human ERalpha
# Estrogen receptor beta [4] = target: T2, Estrogen receptor beta (Homo sapiens, UniProt Q92731)
# T2 sequence (Q92731 whole entry): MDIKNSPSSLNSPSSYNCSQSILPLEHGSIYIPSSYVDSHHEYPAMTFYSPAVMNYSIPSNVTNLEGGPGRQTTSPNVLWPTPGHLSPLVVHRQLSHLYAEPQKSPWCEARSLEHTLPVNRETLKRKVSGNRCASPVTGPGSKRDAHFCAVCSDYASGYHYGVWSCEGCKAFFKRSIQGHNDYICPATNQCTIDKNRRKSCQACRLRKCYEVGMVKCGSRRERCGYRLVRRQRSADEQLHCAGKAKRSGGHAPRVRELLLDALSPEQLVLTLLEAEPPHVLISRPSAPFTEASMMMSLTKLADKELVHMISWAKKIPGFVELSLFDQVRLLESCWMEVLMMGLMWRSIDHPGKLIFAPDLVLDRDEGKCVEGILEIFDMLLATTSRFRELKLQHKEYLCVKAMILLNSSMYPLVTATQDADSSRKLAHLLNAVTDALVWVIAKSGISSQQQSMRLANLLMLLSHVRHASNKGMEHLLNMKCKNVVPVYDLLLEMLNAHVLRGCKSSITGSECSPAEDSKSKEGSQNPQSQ
# Description: Displacement of [3H]17beta-estradiol from recombinant human ERbeta
# Homo sapiens [5] = organism: Homo sapiens; experiment: Selectivity for human ERbeta over human ERalpha
# Estrogen receptor [6] = target: T3, Estrogen receptor (Homo sapiens, UniProt P03372)
# T3 sequence (P03372 whole entry): T1 sequence (whole entry)
# Description: as §1
# Estrogen receptor beta [7] = target: T2, Estrogen receptor beta; experiment: Agonist activity at human ERbeta expressed in yeast AH109 by yeast two hybrid assay; format: functional
# Estrogen receptor [8] = target: T3, Estrogen receptor; experiment: Antagonist activity at ERalpha expressed in yeast AH109 assessed as inhibition of 17-beta-estradiol induced alpha-galactosidase activity; format: functional
# Homo sapiens [9] = organism: Homo sapiens; experiment: Selectivity ratio of EC50 for human ERalpha to EC50 for human ERbeta
# Estrogen receptor [10] = target: T3, Estrogen receptor; experiment: Agonist activity at human ERalpha expressed in yeast AH109 by yeast two hybrid assay; format: functional
Compound,Activity (Mus musculus [1]),Activity (Mus musculus [2]),Activity [3],IC50 (Estrogen receptor beta [4]),Ratio IC50 (Homo sapiens [5]),IC50 (Estrogen receptor [6]),EC50 (Estrogen receptor beta [7]),IC50 (Estrogen receptor [8]),Ratio EC50 (Homo sapiens [9]),EC50 (Estrogen receptor [10])
CC(=O)N1CC(c2ccc(O)cc2)Cc2ccc(O)cc21 (stereo not drawn),29.1 mg,451 mg/cm3,,,,,,,,
O=CN1CC(c2ccc(O)cc2)Cc2ccc(O)cc21 (stereo not drawn),36.4 mg,463 mg/cm3,,,,,,,,
Oc1ccc(C2Cc3ccc(O)cc3NC2=S)cc1 (stereo not drawn),38.7 mg,483 mg/cm3,inactive,4.9 µM,,,,,,
Oc1ccc(C2Cc3ccc(O)cc3N(CC3CC3)C2)cc1 (stereo not drawn),30.8 mg,461 mg/cm3,,0.23 µM,7.1,1.63 µM,6.89 µM,5.57 µM,,
CS(=O)(=O)N1CC(c2ccc(O)cc2)Cc2ccc(O)cc21 (stereo not drawn),32.5 mg,475 mg/cm3,,0.52 µM,61.5,32.1 µM,,,,
CN1CC(c2ccc(O)cc2)Cc2ccc(O)cc21 (stereo not drawn),31.8 mg,455 mg/cm3,,0.22 µM,13.3,2.95 µM,0.3 µM,,50,15.2 µM
CCN1CC(c2ccc(O)cc2)Cc2ccc(O)cc21 (stereo not drawn),31.7 mg,454 mg/cm3,,0.083 µM,17,1.41 µM,0.58 µM,,41,24.3 µM
Oc1ccc(-c2cnc3cc(O)ccc3c2)cc1,33.1 mg,430 mg/cm3,,,,,37.5 µM,,,> 100 µM
O=C(C1CC1)N1CC(c2ccc(O)cc2)Cc2ccc(O)cc21 (stereo not drawn),,,inactive,2.95 µM,,,,,,
O=C(c1ccc(OCCN2CCCCC2)cc1)c1c(-c2ccc(O)cc2)sc2cc(O)ccc12 [RALOXIFENE],69.5 mg,608 mg/cm3,,,,,,,,
Oc1ccc(C2CNc3cc(O)ccc3C2)cc1 (stereo not drawn),,,,,,,9.7 µM,,,> 100 µM
CCCN1CC(c2ccc(O)cc2)Cc2ccc(O)cc21 (stereo not drawn),28.3 mg,439 mg/cm3,,0.14 µM,17.9,2.47 µM,4.75 µM,2.65 µM,,
